Blank lines part the entries; values can stand above or below the compound they belong to. Where a SMILES comes first, the peptide text is derived from it. [ ]: non-standard residue; d: D form. The star is where a group is joined. AMC = Cc1cc(=O)oc2cc(N*)ccc12; pGlu = O=C1CC[C@@H](C(=O)O)N1; Bz = O=C(c1ccccc1)*; CH2Cl = ClC*
Legend:
[1] = test system: Cat1 S3 fur extract proteolytic activity; assay: Inhibition of the proteolytic activity in animal fur by proteinase inhibitors; format: biochemical, cat; conditions: Cat1 S3, 10 μM inhibitor
Experimental: (§1) […] The assay was begun with substrate and sample and a continuous rate of product formation (nM/min) was measured (v0) for 15 min. The inhibitor was added to a final concentration of 10 μM in negligible volume from stock solution in dimethyl sulfoxide. The assay was continued for a further 15 min.
(§2) Under these conditions reversible inhibition can be measured as the new steady state (v1) with percentage inhibition being 1−(v1/v0)×100. Irreversible inhibition is measured as a second order rate constant and is time dependent but as long as the inhibitor is present in molar excess should always lead eventually to total inhibition. No distinction was made and inhibition is presented as a percentage of full activity. See results table 4.

[2] = test system: Horse1 S2 fur extract proteolytic activity; assay: as above; format: biochemical, horse; conditions: Horse1 S2, 10 μM inhibitor, substrate 2 Z-Phe-Arg-NHMec
Experimental: as §1, §2

[3] = test system: Horse1 S1 mane extract proteolytic activity; assay: as above; format: biochemical, horse; conditions: Horse1 S1, 10 μM inhibitor, substrate 2 Z-Phe-Arg-NHMec
Experimental: as §1, §2

[4] = test system: Dog2 S1 fur extract proteolytic activity; assay: as above; format: biochemical, dog; conditions: Dog2 S1, 10 μM inhibitor, substrate 2 Z-Phe-Arg-NHMec
Experimental: as §1, §2

[5] = test system: G.pig2 S1 fur extract proteolytic activity; assay: as above; format: biochemical, guinea pig; conditions: G.pig2 S1, 10 μM inhibitor, substrate 2 Z-Phe-Arg-NHMec
Experimental: as §1, §2

[6] = test system: Cat1 S3 fur extract proteolytic activity; assay: Proteolytic activity of fur extract against NHMec substrates; format: biochemical, cat; conditions: sample Cat1 S3, 5 μM substrate, 37° C., pH 7.5
Experimental: (§3) A clean pet brush was used to brush three common English domestic cats. Fur from guinea pigs, rabbit, dogs and horse was collected in the same way. A different brush was used for each species and between brushings these were cleaned thoroughly in a denaturing detergent solution (Fairy® detergent) and then ethanol. The brushings were transferred to a sterile universal container and extracted by shaking in an extraction buffer, 50 mM Tris.HCl, 5 mM CaCl2, pH 7.5 (0.1 g/ml). The solution was recovered by centrifugation and stored at −20° C. in aliquots. Saliva was collected from a mastiff-type dog and stored frozen in aliquots until assayed. Sample aliquots were assayed for proteolytic activity using fluorometric blocked peptidylaminomethylcoumarylamide substrates in the cuvette of a Perkin Elmer fluorimeter at 37° C. The fluorimeter was standardised with a known concentration of methylcoumarin, and the assays were designed so that no more than 10% substrate hydrolysis occurred.
(§4) Assays were performed in assay buffer; 50 mM Tris.HCl, 5 mM CaCl2, 0.1% CHAPS, pH 7.5. Data were collected in real-time on a personal computer using the Flusys software package.
(§5) In the first series of experiments the sample (12 μl) was assayed against a range of serine and cysteine proteinase aminomethylcoumarylamide (NHMec) substrates (obtained commercially from Bachem) under standard conditions of 5 μM substrate concentration (from a 100-fold stock solution in dimethyl sulfoxide) to give a final volume of 120 μl. After addition of substrate the rate without sample was determined (which in all cases was zero), after which the sample was applied and the progress of the reaction was followed for a further 15 min. The slope obtained (fluorescence vs time) was analysed by linear regression and converted to rate of product formation (nM/min) see results table 2.

[7] = test system: Cat1 S3 fur extract proteolytic activity; assay: Determination of Ki for the inhibition of Cat1 S3 by leupeptin; format: biochemical, cat; set-up: V1: unit not given beside the values
Experimental: The assays were carried out as described above, using 5 μM Z-Gly-Gly-Arg-NHMec as substrate in assay buffer. The assay was begun with substrate and sample and a continuous rate of product formation (nM/min) was measured (v0) for 15 min. […] The assay was continued for a further 15 min.
as §2

[8] = test system: Cat1 S1 fur extract proteolytic activity; assay: Proteolytic activity of fur extract against NHMec substrates; format: biochemical, cat; conditions: sample Cat1 S1, 5 μM substrate, 37° C., pH 7.5
Experimental: as §3, §4, §5

[9] = test system: Cat2 S1 fur extract proteolytic activity; assay: as above; format: biochemical, cat; conditions: sample Cat2 S1, 5 μM substrate, 37° C., pH 7.5
Experimental: as §3, §4, §5

[10] = substrate 1 Z-Gly-Gly-Arg-NHMec

SMILES: CC(C)C[C@H](NC(=O)[C@H]1O[C@@H]1C(=O)O)C(=O)NCCCCN=C(N)N (relative stereo) [E64, L-trans epoxysuccinyl-leucylamido-4-guanidino-butane]
% Inhibition [1, 10]: 20.4% | v1 (rate after inhibitor) [1, 10]: 2.005 nM/min

SMILES: Cc1cc(=O)oc2cc(NC(=O)[C@H](CCCN=C(N)N)NC(=O)[C@@H](NC(=O)[C@H](Cc3ccccc3)NC(=O)c3ccccc3)C(C)C)ccc12 [Bz-Phe-Val-Arg-NHMec] (Bz-Phe-Val-Arg-{AMC})
Rate [6]: 32.1 nM/min

SMILES: CC(=O)N[C@@H](CC(C)C)C(=O)N[C@@H](CC(C)C)C(=O)N[C@H](C=O)CCCNC(=N)N [Leupeptin, acetyl-Leu-Leu-Arg-CHO]
% Inhibition [1, 10]: 100% | v1 (rate after inhibitor) [1, 10]: 0 nM/min | % Inhibition ([7]; Cat1 S3, [I] 0.5 nM): 25.0% | V1 ([7]; Cat1 S3, [I] 0.5 nM): 6.0 | % Inhibition ([7]; Cat1 S3, [I] 1.0 nM): 24.3% | V1 ([7]; Cat1 S3, [I] 1.0 nM): 5.6 | % Inhibition ([7]; Cat1 S3, [I] 5.0 nM): 37.9% | V1 ([7]; Cat1 S3, [I] 5.0 nM): 4.9 | % Inhibition ([7]; Cat1 S3, [I] 10.0 nM): 53.2% | V1 ([7]; Cat1 S3, [I] 10.0 nM): 4.4 | % Inhibition ([7]; Cat1 S3, [I] 50.0 nM): 68.7% | V1 ([7]; Cat1 S3, [I] 50.0 nM): 2.6 | % Inhibition ([7]; Cat1 S3, [I] 100.0 nM): 78.0% | V1 ([7]; Cat1 S3, [I] 100.0 nM): 1.8 | Ki ([7]; found using the Enzfitter software package, read-out: Kl for the inhibition of Cat1 S3): 2.64 nM

SMILES: Cc1cc(=O)oc2cc(NC(=O)[C@H](CCCN=C(N)N)NC(=O)[C@H](CCCCN)NC(=O)[C@@H](NC(=O)[C@H](CCCN=C(N)N)NC(=O)[C@@H]3CCC(=O)N3)[C@@H](C)O)ccc12 [Pyr-Arg-Thr-Lys-Arg-NHMec] ([pGlu]RTKR-{AMC})
Rate [8]: 0.58 nM/min | Rate [9]: 0.33 nM/min

Next, values leading:

% Inhibition [1, 10]: 35.4% | v1 (rate after inhibitor) [1, 10]: 1.837 nM/min
SMILES: O=c1oc(Cl)c(Cl)c2ccccc12 [3,4-Dichloroisocoumarin]

% Inhibition [2]: 100% | v1 (rate after inhibitor) [2]: 0 nM/min | % Inhibition [3]: 100% | v1 (rate after inhibitor) [3]: 0 nM/min | % Inhibition [4]: 71.2% | v1 (rate after inhibitor) [4]: 0.184 nM/min | % Inhibition [1, 10]: 100% | v1 (rate after inhibitor) [1, 10]: 0.002 nM/min | % Inhibition [5]: 94.8% | v1 (rate after inhibitor) [5]: 0.964 nM/min
SMILES: N=C(N)SCCCOc1oc(=O)c2cc(N)ccc2c1Cl [ACITIC, 7-amino-4-chloro-3-(-3-isothiureido-propoxy) isocoumarin]

% Inhibition [1, 10]: 98.7% | v1 (rate after inhibitor) [1, 10]: 0.143 nM/min
SMILES: NC(N)=NCCC[C@H](NC(=O)CNC(=O)[C@@H](N)CCC(=O)O)C(=O)CCl [H-Glu-Gly-Arg-chloromethane] (H-Glu-Gly-Arg-CH2Cl)

% Inhibition ([1]; substrate 2 Z-Phe-Arg-NHMec): 100% | v1 (rate after inhibitor) ([1]; substrate 2 Z-Phe-Arg-NHMec): 0 nM/min
SMILES: N=C(N)SCCCOc1oc(=O)c2cc(NC(=O)NCc3ccccc3)ccc2c1Cl [PhCH2NHCONH-CiTPrOIC]

From US20040248769A1, “Enzyme inhibitors for inactivating allergens” (priority 2001, published 2004)
